From article PMC10836395, “Investigation of how gate residues in the main channel affect the catalytic activity of Scytalidium thermophilum catalase” (Acta Crystallographica. Section D, Structural Biology, 2024)
Positions count from the first letter of the chain named.

Assays:
Assay in all cases: Spectrophotometric phenol oxidase assay without H2O2 at pH 7.0 and 60 °C, initial rates fitted to the Michaelis-Menten equation.
Format in all cases: biochemical
T188F = molecular target: T1, T188F (Mycothermus thermophilus, UniProt M4GGR5, T207F); settings: read-out: Phenol oxidase K m; n = 3
T1 construct: recombinant, pET-28-TEV-CATPO; contains heme b; Rz 0.8
T1 sequence (M4GGR5 20-717 T207F): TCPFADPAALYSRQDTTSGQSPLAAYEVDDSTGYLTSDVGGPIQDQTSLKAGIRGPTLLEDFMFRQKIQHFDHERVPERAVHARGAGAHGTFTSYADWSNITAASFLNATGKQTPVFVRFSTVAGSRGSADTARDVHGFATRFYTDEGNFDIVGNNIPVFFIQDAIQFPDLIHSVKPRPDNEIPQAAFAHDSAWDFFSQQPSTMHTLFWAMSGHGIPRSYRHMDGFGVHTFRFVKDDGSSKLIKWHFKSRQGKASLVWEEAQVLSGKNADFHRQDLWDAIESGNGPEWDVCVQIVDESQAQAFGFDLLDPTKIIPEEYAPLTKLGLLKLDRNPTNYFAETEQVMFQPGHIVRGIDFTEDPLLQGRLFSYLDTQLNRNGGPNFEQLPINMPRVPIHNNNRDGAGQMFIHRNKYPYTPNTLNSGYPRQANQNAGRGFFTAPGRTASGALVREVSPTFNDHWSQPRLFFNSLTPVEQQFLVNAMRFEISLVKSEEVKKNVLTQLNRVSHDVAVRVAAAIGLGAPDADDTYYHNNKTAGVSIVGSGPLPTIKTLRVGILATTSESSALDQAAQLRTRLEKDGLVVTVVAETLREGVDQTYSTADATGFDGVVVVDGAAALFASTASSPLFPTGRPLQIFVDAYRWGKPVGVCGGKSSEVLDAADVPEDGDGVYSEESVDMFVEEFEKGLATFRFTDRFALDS
Experimental: (§1) All inhibition assays were performed in triplicate.

T188I = molecular target: T2, T188I (Mycothermus thermophilus, UniProt M4GGR5, T207I); settings: read-out: Phenol oxidase K m; n = 3
T2 construct: recombinant, pET-28-TEV-CATPO; contains heme b; Rz 0.4
T2 sequence (M4GGR5 20-717 T207I): T1 sequence (M4GGR5 20-717 T207F) with F188I
Experimental: as §1

CATPO = molecular target: T3, CATPO (Mycothermus thermophilus, UniProt M4GGR5); settings: n = 3
T3 construct: recombinant, pET-28-TEV-CATPO; contains heme d; Rz 0.8
T3 sequence (M4GGR5 20-717): T1 sequence (M4GGR5 20-717 T207F) with F188T
Experimental: as §1

T188D = molecular target: T4, T188D (Mycothermus thermophilus, UniProt M4GGR5, T207D); settings: read-out: Phenol oxidase K m; n = 3
T4 construct: recombinant, pET-28-TEV-CATPO; contains heme b; Rz 0.5
T4 sequence (M4GGR5 20-717 T207D): T1 sequence (M4GGR5 20-717 T207F) with F188D
Experimental: as §1

## Oc1cccc(O)c1O [Pyrogallol, pyrogallol]
T188F
  K m: 37 ± 0.5 mM
T188I
  K m: 38 ± 0.5 mM
CATPO
  K m: 40 ± 1.8 mM
T188D
  K m: 41 ± 1 mM
